According to US11789013B2, “Componential analyzer, drug efficacy analyzer, and analysis method” (Hitachi High-Tech Corporation, priority 2013, dated 2023):

Tested on: hepatocytes
Experiment: Drug distribution / efflux fraction analysis in cultured hepatocytes (basolateral efflux, biliary excretion, intracellular fraction)
Type: in vitro ADME, rat
Conditions: for ratio of the amount of drug excreted into the bile duct to the total amount of drug taken up into the cells (BiRD), (B1−B2)/(C1+C2): pattern 1, sequences 1 (EGTA disrupted) and 2 (maintained), 37° C.; for ratio of the amount of drug excreted into the bile duct to the total amount of drug taken up into the cells (BiRD), (B1−B2)/(C1+C2) / Sup fraction (first fraction of the basolateral efflux, S1), index for tendency to remain or not to remain in the cells: 30 minutes; for ratio of the amount of drug excreted into the bile duct to the total amount of drug taken up into the cells (BiRD), (B1−B2)/(C1+C2) / ratio of the amount of drug excreted via transporter to the amount of drug excreted to the basolateral side (RexEMTP), (B2-B3)/B2: fluorescence; for ratio of the amount of drug excreted via transporter to the amount of drug excreted to the basolateral side (RexEMTP), (B2-B3)/B2: pattern 1, step 5, 30 minutes, sequences 2 (37° C.) and 3 (4° C.); for Sup fraction (first fraction of the basolateral efflux, S1), index for tendency to remain or not to remain in the cells: pattern 2 (sum of steps 4, 5, 6 = 100%), step 4, 37° C., in %
Method: Hepatocytes were prepared by in situ collagenase perfusion method. The details are as follows. A rat (5-6 week-old) is anesthetized with pentobarbital and laparotomy is performed to insert a catheter into the portal vein and inject the preperfusion solution (a Ca^2+ and Mg^2+ free Hanks' solution containing EGTA). After confirming that blood is sufficiently removed from the liver, the perfusion is stopped. The perfusate is changed into a collagenase solution to conduct perfusion. In this embodiment, the perfusion is conducted with a Hanks' solution containing 0.05% collagenase, but the collagenase solution is not limited to this. Once confirmed that the tissue between the cells was digested by collagenase, the perfusion is stopped. The liver is excised, sliced in a cooled Hanks' solution, and separated into cells by pipetting. Damaged hepatocytes are removed by centrifugation at 500 G for 5 minutes with an isotonic Percoll solution. The viability of the resultant hepatocytes is determined by the trypan blue-exclusion test. Hepatocytes having a viability of 85% or more are used for culture. Here, hepatocytes having a viability of 85% or more are used for culture, but such culture is, needless to say, not necessarily limited to the condition. In addition, the preparation of hepatocytes is not necessarily limited to that by in situ collagenase perfusion method. The hepatocytes to be used are not limited to those derived from a rat and the strain of rat is not limited. This embodiment uses hepatocytes, but cells are not limited to this.
Hepatocytes prepared by in situ collagenase perfusion method as described above are suspended in a medium. The hepatocytes are suspended at a density of 5×10^5 cells/mL in a medium and plated onto a commercially available culture dish coated with collagen. The density upon plating, the medium, and the culture plate 001 are not particularly limited. The culture plate is illustrated in FIG. 1. A 24 well culture plate having 24 culture regions (wells, 002) is here illustrated, but the culture plate is not limited to this as long as it can contain predetermined cells and containers in other shapes may be used. After plating, culture is started under conditions of 5% CO2 and 37° C. using a CO2 incubator. After 18 hours or more, the first medium change is conducted. Although the medium to be used for culture 18 hours after the plating is not particularly limited, in this embodiment, the medium (FCS−), a medium in which FCS is removed from the medium (10% FCS+), supplemented with Matrigel is used. After this, medium change with the medium (FCS−) is conducted every 24 hours. As described later, testing is conducted under three different conditions (sequences 1, 2, and 3: described in detail in step 5) in step 5, three independent culture plates with the same conditions are prepared at this point. In steps 0 to 4 and step 5, the same testing operations are conducted in all the three sequences.
The culture supernatant of the cells cultured in step 0 for 4 days is removed and 400 μL of Hanks' solution is added as a buffer. The cells are incubated at 37° C. for 10 minutes (FIG. 2, step 1). The type and amount of buffer are not particularly limited.
The buffer is removed, and then 200 μL of 10 μM CDF (a fluorescent reagent) is added to the well. The plate is incubated at 37° C. for 30 minutes and then maintained at 4° C. for 5 minutes (FIG. 2, step 2). The type, concentration, and amount of the reagent are not particularly limited. CDF emits fluorescence and can be therefore easily quantified by a plate reader as a model reagent. The amount of administration, 200 μL, was chosen so that the cells as a whole in the well would be immersed in the reagent. The concentration of CDF may be a concentration conventionally used for a fluorescence assay of cells. This concentration is preferably applied as an amount of the reagent for the detection with a plate reader. […]

Row | ratio of the amount of drug excreted into the bile duct to the total amount of drug taken up into the cells (BiRD), (B1−B2)/(C1+C2) | ratio of the amount of drug excreted via transporter to the amount of drug excreted to the basolateral side (RexEMTP), (B2-B3)/B2 | Sup fraction (first fraction of the basolateral efflux, S1), index for tendency to remain or not to remain in the cells | Substance
1 | 18.58 | 41.08 | 70.82 | CDF
2 | 4.92 | 52.52 | 39.29 | Rhodamine123
